Reference: patent publication US20210221785A1, “AMINO-PYRIMIDONYL DERIVATIVES, A PROCESS FOR THEIR PREPARATION AND PHARMACEUTICAL COMPOSITIONS CONTAINING THEM” (LES LABORATOIRES SERVIER, priority 2018, published 2021)

Tests used:
[1] = tested on: Z138 mantle cell lymphoma tumour cell lines; test: In vitro cytotoxicity, MTT assay; format: cell-based; details: Homo sapiens, Z-138, 96 h, Z138 cells exposed to the test compounds for 96 hours; cell viability vs DMSO treated cells
In short: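 Z138 cells exposed to compounds for 96 hours, then MTT added for 4 hours. Viable cells quantified from formazan absorbance at 540 nm.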

[2] = target: T1, His-His-USP7 (aa208-560, |C315A|) (Homo sapiens, UniProt Q93009, C315A); test: Evaluation of the inhibition of USP7 by the Fluorescence Intensity (FLINT) readings; format: biochemical; details: 0.25 nM His-His-USP7, compound incubated 60 minutes at 30° C., 500 nM Ubiquitin-Rhodamine-110 substrate; 50% reduction in kinetic rate
T1 construct: His-His-USP7 (aa208-560, |C315A|); His-His (N)
In short: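 IC50 reflects 50% reduction in kinetic rate of rhodamine-110 release (Ex485/Em535, reads every 3 min over 21 min), normalised to DMSO and no-enzyme controls, from an 11-point 4-parameter fit. Substrate is 500 nM Ub-Rh110, added after 60 min, 30 °C preincubation of compound with 0.25 nM USP7 aa208–560 C315A. Buffer is Bicine pH 8.0 with 10% DMSO.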

T1 sequence (Q93009 208-560 C315A): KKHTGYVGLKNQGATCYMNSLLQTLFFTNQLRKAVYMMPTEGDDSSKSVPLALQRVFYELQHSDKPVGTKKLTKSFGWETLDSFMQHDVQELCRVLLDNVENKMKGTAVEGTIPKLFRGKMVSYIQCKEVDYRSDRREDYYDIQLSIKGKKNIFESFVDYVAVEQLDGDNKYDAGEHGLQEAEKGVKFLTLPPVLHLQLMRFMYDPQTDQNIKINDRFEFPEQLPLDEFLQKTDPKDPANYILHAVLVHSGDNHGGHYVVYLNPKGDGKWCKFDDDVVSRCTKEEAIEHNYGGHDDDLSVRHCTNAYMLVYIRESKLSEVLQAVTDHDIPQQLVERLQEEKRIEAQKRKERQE

| IC50 [2] | SMILES | IC50 [1] |
| --- | --- | --- |
| 10 nM | Cc1ccc(C#C[C@@]2(F)CC[C@@H](C(=O)N3CC[C@](O)(Cn4cnc(Oc5ccc(F)cc5)c(N)c4=O)C(F)(F)C3)[C@H](c3ccccc3)C2)nn1 [Example 162, 5-amino-3-[[(4S)-3,3-difluoro-1-[(1R,2R,4R)-4-fluoro-4-[2-(6-methylpyridazin-3-yl)ethynyl]-2-phenylcyclohexanecarbonyl]-4-hydroxypiperidin-4-yl]methyl]-6-(4-fluorophenoxy)-3,4-dihydropyrimidin-4-one] | 0.00647 µM |
| 52.4 nM | Nc1cccc(C#C[C@@]2(F)CC[C@@H](C(=O)N3CC[C@](O)(Cn4cnc(Oc5ccc(F)cc5)c(N)c4=O)C(F)(F)C3)[C@H](c3ccccc3)C2)n1 [Example 163, 5-amino-3-{[(4S)-1-[(1R,2R,4R)-4-[2-(6-aminopyridin-2-yl)ethynyl]-4-fluoro-2-phenylcyclohexanecarbonyl]-3,3-difluoro-4-hydroxypiperidin-4-yl]methyl}-6-(4-fluorophenoxy)-3,4-dihydropyrimidin-4-one] | 0.0277 µM |
| 24.6 nM | CO[C@]1(C#Cc2cccc(N)n2)CC[C@@H](C(=O)N2CC[C@](O)(Cn3cnc(Oc4ccc(F)cc4)c(N)c3=O)C(F)(F)C2)[C@H](c2ccccc2)C1 [Example 164, 5-amino-3-{[(4S)-1-[(1R,2R,4R)-4-[2-(6-aminopyridin-2-yl)ethynyl]-4-methoxy-2-phenylcyclohexanecarbonyl]-3,3-difluoro-4-hydroxypiperidin-4-yl]methyl}-6-(4-fluorophenoxy)-3,4-dihydropyrimidin-4-one] | 0.0165 µM |
| 5.57 nM | CO[C@]1(C#Cc2cccnn2)CC[C@@H](C(=O)N2CC[C@](O)(Cn3cnc(Oc4ccc(F)cc4)c(N)c3=O)C(F)(F)C2)[C@H](c2ccccc2)C1 [Example 165, 5-amino-3-{[(4S)-3,3-difluoro-4-hydroxy-1-{[(1R,2R,4R)-4-methoxy-2-phenyl-4-[2-(pyridazin-3-yl)ethynyl]cyclohexyl]carbonyl}piperidin-4-yl]methyl}-6-(4-fluorophenoxy)pyrimidin-4-one] | 0.00415 µM |
| 11.2 nM | CO[C@]1(C#Cc2ccccn2)CC[C@@H](C(=O)N2CC[C@](O)(Cn3cnc(Oc4ccc(F)cc4)c(N)c3=O)C(F)(F)C2)[C@H](c2ccccc2)C1 [Example 166, 5-amino-3-{[(4S)-3,3-difluoro-4-hydroxy-1-[(1R,2R,4R)-4-methoxy-2-phenyl-4-[2-(pyridin-2-yl)ethynyl]cyclohexanecarbonyl]piperidin-4-yl]methyl}-6-(4-fluorophenoxy)-3,4-dihydropyrimidin-4-one] | 0.00943 µM |
| 27.2 nM | Nc1c(Oc2ccc(F)cc2)ncn(C[C@@]2(O)CCN(C(=O)[C@@H]3CC[C@](F)(C#Cc4ncccn4)C[C@H]3c3ccccc3)CC2(F)F)c1=O [Example 167, 5-amino-3-{[(4S)-3,3-difluoro-1-[(1R,2R,4R)-4-fluoro-2-phenyl-4-[2-(pyrimidin-2-yl)ethynyl]cyclohexanecarbonyl]-4-hydroxypiperldin-4-yl]methyl}-6-(4-fluorophenoxy)-3,4-dihydropyrimidin-4-one] | 0.0124 µM |
| 3.48 nM | Nc1c(Oc2ccc(F)cc2)ncn(C[C@@]2(O)CCN(C(=O)[C@@H]3CC[C@](F)(C#Cc4cccnn4)C[C@H]3c3ccccc3)CC2(F)F)c1=O [Example 168, 5-amino-3-{[(4S)-3,3-difluoro-1-{[(1R,2R,4R)-4-fluoro-2-phenyl-4-[2-(pyridazin-3-yl)ethynyl]cyclohexyl]carbonyl}-4-hydroxypiperidin-4-yl]methyl}-6-(4-fluorophenoxy)pyrimidin-4-one] | 0.00157 µM |
| 8.8 nM | CO[C@@H]1CC[C@@](C#Cc2cc(C)cnn2)(C(=O)N2CC[C@](O)(Cn3cnc(Oc4ccc(F)cc4)c(N)c3=O)C(F)(F)C2)[C@@H](c2ccccc2)C1 [Example 169, 5-amino-3-{[(4S)-3,3-difluoro-4-hydroxy-1-[(1R,2R,4R)-4-methoxy-1-[2-(5-methylpyridazin-3-yl)ethynyl]-2-phenylcyclohexanecarbonyl]piperidin-4-yl]methyl}-6-(4-fluorophenoxy)-3,4-dihydropyrimidin-4-one] | 0.00218 µM |
